# Measurements reported in US20210087172A1, “FACTOR XIIa INHIBITORS” (UNIVESITY OF LEEDS, priority 2018, published 2021).
# Columns and labels:
# Assay type in all cases: biochemical
# Thrombin (human) = target: T1, Thrombin (human) (Homo sapiens, UniProt P00734); assay: Determination of selectivity: thrombin chromogenic assay (GPR substrate); details: fold selectivity for FXIIa over thrombin; thrombin 5 nM, GPR 250 μM
# T1 construct: FXa (5 nM) and thrombin (5 nM)
# Protocol: (§1) The activities of the compounds of the invention have been determined in vitro using the following assays protocols for the screening of activity of FXIa and other proteases. Each of these assays were performed in a purified system employing the use of chromogenic assays in microplate plate wells. Chromogenic peptide substrates mimicking natural protein substrates are attached via an amide bond to a chromogenic group. Paranitroaniline (pNA) is released from the peptide following catalyses by the proteolytic enzyme; the absorbance increases and can be monitored at 405 nm.
# (§2) All compounds were dissolved in 100% (v/v) DMSO to a stock concentration of 10 mM, the highest concentration of compound used in each assay is 500 μM. The final concentrations of DMSO were 5% (v/v) in 50 mM Tris 137 mM NaCl pH 7.4. Where no test compound was added a final concentration of 5% DMSO was employed.
# (§3) To determine selectivity of test compounds, these test compounds were assayed for inhibitory activity against other serine proteases including FXa and thrombin. Essentially compounds at increasing concentrations were incubated with each enzyme: FXa (5 nM) and thrombin (5 nM), for 10 mins at 37° C. followed the appropriate chromogenic substrate, S2765 (350 μM), and GPR (250 μM) respectively in 50 mM Tris, 137 mM NaCl, pH 7.4. Chromogenic substrates S2765 was from Chromogenix, and GPR from Bachem. Kinetic readings at 405 nm were monitored every 12 secs for a total duration of 3 hours at 37° C. Gradients of initial rates were determined and employed to calculate IC50 values. Values of IC50 were converted to Ki values based on the formula:
# (§4) Ki=IC50/(1+[Substrate]/Km)
# (§5) Where [Substrate] denotes the concentration of substrate used in the assay and Km is the determined value of each enzyme with its own substrate.
# The fold selectivity for FXIIa over thrombin for the compounds of the invention has been categorised based on the fold selectivity values, the categories being “+”, “++” and “+++”. The category “+” refers to fold selectivity values less than 10. The category “++” refers to a fold selectivity value of 10 to 100. The category “+++” refers to fold selectivity values greater than 100.
# FXIIa alpha (Human) = target: T2, FXIIa alpha (Human) (Homo sapiens, UniProt P00748); assay: Determination of Factor XIIa inhibition, chromogenic substrate S-2302; details: 10 nM FXIIa, 450 μM S-2302, 37° C., pH 7.4; Ki converted from IC50
# T2 construct: FXIIa alpha
# T2 sequence (P00748 373-615 limits assumed): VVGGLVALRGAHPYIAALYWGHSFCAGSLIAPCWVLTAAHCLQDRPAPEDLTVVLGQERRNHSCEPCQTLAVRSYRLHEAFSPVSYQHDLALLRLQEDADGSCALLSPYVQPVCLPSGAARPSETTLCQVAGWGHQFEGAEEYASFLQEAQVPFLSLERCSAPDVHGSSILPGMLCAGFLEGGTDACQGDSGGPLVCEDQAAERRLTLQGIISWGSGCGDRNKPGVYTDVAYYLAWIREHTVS
# T2 sequence (P00748 20-372 partner limits assumed): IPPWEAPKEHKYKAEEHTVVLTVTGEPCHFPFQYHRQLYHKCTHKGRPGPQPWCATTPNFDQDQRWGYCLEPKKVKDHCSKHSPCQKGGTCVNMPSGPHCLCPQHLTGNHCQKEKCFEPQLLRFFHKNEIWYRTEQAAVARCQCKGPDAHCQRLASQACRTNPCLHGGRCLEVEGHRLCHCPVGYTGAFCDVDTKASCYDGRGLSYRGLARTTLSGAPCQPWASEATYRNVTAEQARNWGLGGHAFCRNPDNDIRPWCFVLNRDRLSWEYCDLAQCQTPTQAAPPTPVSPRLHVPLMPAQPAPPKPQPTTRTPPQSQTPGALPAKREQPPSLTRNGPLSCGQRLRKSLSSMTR
# Protocol: as §1, §2
# […] activity was measured using a chromogenic substrate S-2302 (Chromogenix). Various concentrations of compound were incubated with 10 nM of FXIIa and incubated at 37° C. for 10 minutes in 50 mM Tris, 137 mM NaCl, pH 7.4, prior to the addition of a final concentration of 450 μM S-2302 chromogenic substrate. Kinetic readings at 405 nm were monitored every 12 secs for a total duration of 3 hours at 37° C. Gradients of initial rates were determined and employed to calculate IC50 values. Values of IC50 were converted to Ki values based on the formula:
# as §4
# The activity of the compounds of the invention has been categorised based on the Ki values, the categories being “*”, “**” and “***”. […] The category refers to compounds with a Ki value of 0.2 μM to 2 μM.
# FXa (human) = FXa (human) (Homo sapiens, UniProt P00742); assay: Determination of selectivity: FXa chromogenic assay (S2765 substrate); details: fold selectivity for FXIIa over FXa; FXa 5 nM, S2765 350 μM
# Protocol: as §1, §2, §3, §4, §5
# The fold selectivity for FXIIa over FXa for the compounds of the invention has been categorised based on the fold selectivity values, the categories being “o”, “oo” and “ooo”. The category “o” refers to fold selectivity values less than 10. The category “oo” refers to a fold selectivity value of 10 to 100. The category “ooo” refers to fold selectivity values greater than 100.
# Chain of FXa (human) (P00742 235-488 limits assumed): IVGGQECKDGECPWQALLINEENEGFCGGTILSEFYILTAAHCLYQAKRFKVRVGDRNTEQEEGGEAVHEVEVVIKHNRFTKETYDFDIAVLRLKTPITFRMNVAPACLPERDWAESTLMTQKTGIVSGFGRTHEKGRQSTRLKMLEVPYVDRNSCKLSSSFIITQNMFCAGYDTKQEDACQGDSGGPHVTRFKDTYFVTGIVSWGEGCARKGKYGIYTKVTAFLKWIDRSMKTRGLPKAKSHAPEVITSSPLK
# Chain of FXa (human) (P00742 41-179 partner limits assumed): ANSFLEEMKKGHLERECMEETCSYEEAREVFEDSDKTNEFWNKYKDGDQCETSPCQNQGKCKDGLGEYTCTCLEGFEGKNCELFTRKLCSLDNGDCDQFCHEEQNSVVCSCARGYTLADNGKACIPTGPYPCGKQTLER
Structure (SMILES),Ki (FXIIa alpha (Human)) [nM],Thrombin (human)/FXIIa alpha (human) fold selectivity (Thrombin (human)),FXa (human)/FXIIa alpha (human) fold selectivity (FXa (human))
Cn1nnc2cc(CNC(=O)[C@@H]3CN(C(=O)Oc4ccccc4)CCN3C(=O)[C@H](N)CCc3ccccc3)ccc21 [Compound M00871],> 2000,++ (a fold selectivity value of 10 to 100),oo (a fold selectivity value of 10 to 100)
C#CCOC(=O)N1CCN(C(=O)C(N)CCc2ccccc2)C(C(=O)NCc2ccc3c(c2)nnn3C)C1 (stereo not shown) [Compound M00880],> 2000,–,–
Cn1ccnc1COC(=O)N1CCN(C(=O)C(N)CCc2ccccc2)C(C(=O)NCc2ccc3c(c2)nnn3C)C1 (stereo not shown) [Compound M00883],> 2000,–,–
Cn1nnc2cc(CNC(=O)C3CN(c4ncccn4)CCN3C(=O)C(N)CCc3ccccc3)ccc21 (stereo not shown) [Compound M00891],> 2000,–,–
COc1ccc(OC(=O)N2CCN(C(=O)[C@H](N)CCc3ccccc3)[C@H](C(=O)NCc3ccc4c(c3)nnn4C)C2)cc1 [Compound M00932],> 2000,++ (a fold selectivity value of 10 to 100),oo (a fold selectivity value of 10 to 100)
Cn1nnc2cc(CNC(=O)[C@@H]3CN(C(=O)Oc4ccc(Cl)cc4)CCN3C(=O)[C@H](N)CCc3ccccc3)ccc21 [Compound M00933],> 2000,++ (a fold selectivity value of 10 to 100),oo (a fold selectivity value of 10 to 100)
"Cn1nnc2cc(CNC(=O)[C@@H]3CN(c4ccc5ncccc5c4)CCN3C(=O)[C@H](N)CCc3ccccc3)ccc21 [Compound M00940, (2S)-1-[(2R)-2-amino-4-phenylbutanoyl]-N-[(1-methyl-1H-1,2,3-benzotriazol-5-yl)methyl]-4-(quinolin-6-yl)piperazine-2-carboxamide]",> 2000,–,–
Cn1nnc2cc(CNC(=O)C3CN(C(=O)OCc4ccc(Cl)cc4)CCN3C(=O)C(N)CCc3ccccc3)ccc21 (stereo not shown) [Compound M00942],> 2000,–,–
NCc1ccc(CNC(=O)C2CC(O)CCN2C(=O)C(N)CCc2ccccc2)cc1 (stereo not shown) [Compound M05071],> 2000,–,–
NC(CCC(=O)N1CCCC1)C(=O)N1CCN(C(=O)OCc2ccccc2)CC1C(=O)NCc1ccnc(O)c1 (stereo not shown) [Compound M05263],> 2000,–,–
Cn1nnc2cc(CNC(=O)C3CN(C(=O)OCc4ccccc4)CCN3C(=O)C(N)C3Cc4ccccc4C3)ccc21 (stereo not shown) [Compound M05273],> 2000,–,–
NC(CCC(=O)N1CCCC1)C(=O)N1CCN(C(=O)OCc2ccccc2)CC1C(=O)NCc1ccc2cnccc2c1 (stereo not shown) [Compound M05275],> 2000,–,–
NC(CCC(=O)N1CCCC1)C(=O)N1CCN(C(=O)OCc2ccccc2)CC1C(=O)NCc1ccc2cnc(O)cc2c1 (stereo not shown) [Compound M05277],> 2000,++ (a fold selectivity value of 10 to 100),–
Cn1nnc2cc(CNC(=O)C3CN(C(=O)OCc4ccccc4)CCN3C(=O)C(N)c3cc4ccccc4o3)ccc21 (stereo not shown) [Compound M05286],> 2000,–,–
Cc1cc2cc(CNC(=O)C3CN(C(=O)OCc4ccccc4)CCN3C(=O)C(N)CCC(=O)N3CCCC3)ccc2cn1 (stereo not shown) [Compound M05292],> 2000,–,–

# Further lines, with some results ahead:
Ki (FXIIa alpha (Human)) [nM],Structure (SMILES),Thrombin (human)/FXIIa alpha (human) fold selectivity (Thrombin (human)),FXa (human)/FXIIa alpha (human) fold selectivity (FXa (human))
200 to 2000,N=C(N)c1ccc(CNC(=O)C2CCCCN2C(=O)C(CCc2ccccc2)NS(=O)(=O)Cc2ccccc2)cc1 (stereo not shown) [Compound M00556],+ (fold selectivity values less than 10),o (fold selectivity values less than 10)
> 2000,Nc1cc(CNC(=O)[C@@H]2CN(C(=O)OCc3ccccc3)CCN2C(=O)[C@H](N)CCc2ccccc2)ccn1 [Compound M00832],++ (a fold selectivity value of 10 to 100),oo (a fold selectivity value of 10 to 100)
> 2000,CN(C)[C@H](CCc1ccccc1)C(=O)N1CCN(C(=O)OCc2ccccc2)C[C@H]1C(=O)NCc1ccnc(N)c1 [Compound M00833],++ (a fold selectivity value of 10 to 100),oo (a fold selectivity value of 10 to 100)
< 200,COc1cc(CNC(=O)[C@@H]2CN(C(=O)OCc3ccccc3)CCN2C(=O)[C@H](N)CCc2ccccc2)ccc1CN [Compound M00834],+++ (fold selectivity values greater than 100),ooo (fold selectivity values greater than 100)
> 2000,NCc1ccc(CNC(=O)C2CN(c3ccccc3)CCN2C(=O)C(N)CCc2ccccc2)cc1 (stereo not shown) [Compound M00836],–,–
> 2000,"CS(=O)(=O)N1CCN(C(=O)[C@H](N)CCc2ccccc2)[C@H](C(=O)NCc2ccc(CN)cc2)C1 [Compound M00838, (2S)-1-[(2R)-2-amino-4-phenylbutanoyl]-N-{[4-(aminomethyl)phenyl]methyl}-4-methanesulfonylpiperazine-2-carboxamide]",+ (fold selectivity values less than 10),o (fold selectivity values less than 10)
> 2000,NCc1ccc(CNC(=O)C2CN(C(=O)CCc3ccccc3)CCN2C(=O)C(N)CCc2ccccc2)cc1 (stereo not shown) [Compound M00840],–,–
> 2000,NCc1ccc(CNC(=O)C2CN(S(=O)(=O)CCc3ccccc3)CCN2C(=O)C(N)CCc2ccccc2)cc1 (stereo not shown) [Compound M00842],–,–
> 2000,NCc1ccc(CNC(=O)C2CN(C(=O)Cc3ccccc3)CCN2C(=O)C(N)CCc2ccccc2)cc1 (stereo not shown) [Compound M00843],+++ (fold selectivity values greater than 100),oo (a fold selectivity value of 10 to 100)
> 2000,NCc1ccc(CNC(=O)C2CN(C(=O)c3ccccc3)CCN2C(=O)C(N)CCc2ccccc2)cc1 (stereo not shown) [Compound M00844],–,–
> 2000,NCc1ccc(CNC(=O)C2CN(C(=O)NCc3ccccc3)CCN2C(=O)C(N)CCc2ccccc2)cc1 (stereo not shown) [Compound M00847],–,–
> 2000,CN(C)C(=O)N1CCN(C(=O)C(N)CCc2ccccc2)C(C(=O)NCc2ccc(CN)cc2)C1 (stereo not shown) [Compound M00848],–,–
> 2000,CC(=O)N1CCN(C(=O)C(N)CCc2ccccc2)C(C(=O)NCc2ccc(CN)cc2)C1 (stereo not shown) [Compound M00850],–,–
> 2000,Cc1cc(CNC(=O)[C@@H]2CN(C(=O)OCc3ccccc3)CCN2C(=O)[C@H](N)CCc2ccccc2)cc(N)n1 [Compound M00858],++ (a fold selectivity value of 10 to 100),oo (a fold selectivity value of 10 to 100)
> 2000,CC(C(=O)N1CCN(C(=O)C(N)CCc2ccccc2)C(C(=O)NCc2ccc(CN)cc2)C1)c1ccccc1 (stereo not shown) [Compound M00859],–,–
> 2000,NCc1ccc(CNC(=O)C2CNCCN2C(=O)C(N)CCc2ccccc2)cc1 (stereo not shown) [Compound M00862],–,–
